Our source for the Ki and IC50 values is patent US12528812B2 (Genentech, Inc., priority 2020, dated 2026).

Assay [1] deals with Recombinant human JAK2 kinase domain protein (Residues 812-1132) (Homo sapiens, UniProt O60674). Description: JAK2 biochemical assay (LabChip mobility shift, Ki). To be noted: Biochem JAK2 Ki.
The target of assay [2] is T1, recombinant human JAK1 kinase domain protein (Residues 854-1154) (Homo sapiens, UniProt P23458).
T1 construct: human JAK1 kinase domain protein (Residues 854-1154); purchased Proteros Biostructures GmbH (Martinsried, Germany); host or cells: insect cells
Description: JAK1 biochemical assay (LabChip mobility shift, Ki). To be noted: read-out: Biochem JAK1 Ki.

The test system of assay [3] is IL-13-stimulated STAT6 phosphorylation in human lung bronchial epithelial BEAS-2B cell line. The assay is described as follows: P-STAT6 BEAS-2B + IL-13 cell assay. It counts as cell-based. To be noted: Homo sapiens, BEAS-2B, BEAS2B cells, IL13 stimulation; read-out: Cellular JAK1 PSTAT6 BEAS2B + IL13. Summed up: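 BEAS-2B cells grown 48 h at 37 °C, pre-treated 1 h with compound (10-point 1:2 dilution curve), then stimulated 15 min with human recombinant IL-13 (250 ng/mL stock). Lysate P-STAT6 (Tyr641) read by MSD sandwich ELISA with total-STAT6 capture; IC50 from four-parameter logistic fit of control-normalised data.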

T1 sequence (P23458 854-1154): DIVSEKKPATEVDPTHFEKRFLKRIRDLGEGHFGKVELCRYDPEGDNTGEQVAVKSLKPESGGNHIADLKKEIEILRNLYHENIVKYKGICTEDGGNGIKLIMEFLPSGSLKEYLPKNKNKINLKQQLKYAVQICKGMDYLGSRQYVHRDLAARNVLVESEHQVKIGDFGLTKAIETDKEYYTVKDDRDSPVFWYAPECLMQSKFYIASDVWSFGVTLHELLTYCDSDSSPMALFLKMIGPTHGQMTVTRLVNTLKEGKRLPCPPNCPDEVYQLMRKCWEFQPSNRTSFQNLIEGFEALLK
Chain of Recombinant human JAK2 kinase domain protein (Residues 812-1132) (O60674 812-1132): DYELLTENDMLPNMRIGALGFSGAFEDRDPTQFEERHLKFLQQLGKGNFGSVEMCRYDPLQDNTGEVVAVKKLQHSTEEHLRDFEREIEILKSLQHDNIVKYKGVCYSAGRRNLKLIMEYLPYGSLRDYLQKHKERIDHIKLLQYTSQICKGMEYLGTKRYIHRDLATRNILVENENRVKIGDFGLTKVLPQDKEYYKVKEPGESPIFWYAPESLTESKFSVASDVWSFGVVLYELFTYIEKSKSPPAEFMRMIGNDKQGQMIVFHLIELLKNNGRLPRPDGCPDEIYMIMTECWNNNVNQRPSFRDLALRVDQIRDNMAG

Take `CN(C)C(=O)c1cccc(Oc2ccc(OC(F)F)c(-c3nn(C)cc3NC(=O)c3cnn4cccnc34)c2)c1` [Example 62, N-[3-[2-(difluoromethoxy)-5-[3-(dimethylcarbamoyl)phenoxy]phenyl]-1-methyl-pyrazol-4-yl]pyrazolo[1,5-a]pyrimidine-3-carboxamide]: the Ki – broadly, the dissociation constant of the complex between target and ligand, obtained from inhibition or displacement – was determined as 0.24 nM in assay [1] and 0.35 nM in assay [2]. For the same molecule, in assay [3], the IC50 amounted to 14 nM.
In the case of `Cn1cc(NC(=O)c2cnn3cccnc23)c(-c2cc(Oc3ccc4c(c3)CCNC4)ccc2OC(F)F)n1` [Example 63, N-[3-[2-(difluoromethoxy)-5-(1,2,3,4-tetrahydroisoquinolin-6-yloxy)phenyl]-1-methyl-pyrazol-4-yl]pyrazolo[1,5-a]pyrimidine-3-carboxamide], the Ki was 0.42 nM in assay [1] and 1.7 nM in assay [2]. For the same molecule, the IC50 in assay [3] came out at 47 nM.
On to `CN1CCc2cc(Oc3ccc(OC(F)F)c(-c4nn(C)cc4NC(=O)c4cnn5cccnc45)c3)ccc2C1` [Example 64, N-[3-[2-(difluoromethoxy)-5-[(2-methyl-3,4-dihydro-1H-isoquinolin-6-yl)oxy]phenyl]-1-methyl-pyrazol-4-yl]pyrazolo[1,5-a]pyrimidine-3-carboxamide], for which the Ki in assay [1] amounted to 0.57 nM; in assay [2], 1.7 nM. Also, in assay [3], the IC50 was 59 nM.
As for `NCc1ccnn1-c1cccc(Oc2ccc(OC(F)F)c(-c3n[nH]cc3NC(=O)c3cnn4cccnc34)c2)c1` [Example 65, N-[3-[5-[3-[5-(aminomethyl)pyrazol-1-yl]phenoxy]-2-(difluoromethoxy)phenyl]-1H-pyrazol-4-yl]pyrazolo[1,5-a]pyrimidine-3-carboxamide], the figures for the Ki in assay [1] and in assay [2] were 0.63 nM and 0.85 nM, respectively. Moreover, the IC50 in assay [3] was found to be 120 nM.
On the same counts, the results for `CNCc1ccnn1-c1cccc(Oc2ccc(OC(F)F)c(-c3nn(C)cc3NC(=O)c3cnn4cccnc34)c2)c1` [Example 66, N-[3-[2-(difluoromethoxy)-5-[3-[5-(methylaminomethyl)pyrazol-1-yl]phenoxy]phenyl]-1-methyl-pyrazol-4-yl]pyrazolo[1,5-a]pyrimidine-3-carboxamide] are 3.6 nM, 3.9 nM and 130 nM.
For `CC(C)(C#N)c1ccc(Oc2ccc(OC(F)F)c(-c3n[nH]cc3NC(=O)c3cnn4cccnc34)c2)cc1` [Example 67, N-[3-[5-[4-(1-cyano-1-methyl-ethyl)phenoxy]-2-(difluoromethoxy)phenyl]-1H-pyrazol-4-yl]pyrazolo[1,5-a]pyrimidine-3-carboxamide], in that order: 1.2 nM, 2.1 nM and 25 nM.
Turning to `Cn1cc(NC(=O)c2cnn3cccnc23)c(-c2cc(Oc3ccc4c(c3)CN(C3COC3)CC4)ccc2OC(F)F)n1` [Example 69, N-[3-[2-(difluoromethoxy)-5-[[2-(oxetan-3-yl)-3,4-dihydro-1H-isoquinolin-7-yl]oxy]phenyl]-1-methyl-pyrazol-4-yl]pyrazolo[1,5-a]pyrimidine-3-carboxamide], the figures for the Ki in assay [1] and in assay [2] were 0.53 nM and 1.3 nM, respectively. The IC50 in assay [3] came out at 37 nM.
For the molecule `Cn1cc(NC(=O)c2cnn3cccnc23)c(-c2cc(Oc3cccc(C4(F)CNC4)c3)ccc2OC(F)F)n1` [Example 70, N-[3-[2-(difluoromethoxy)-5-[3-(3-fluoroazetidin-3-yl)phenoxy]phenyl]-1-methyl-pyrazol-4-yl]pyrazolo[1,5-a]pyrimidine-3-carboxamide], the Ki was 0.26 nM in assay [1] and 0.27 nM in assay [2]. Further, the IC50 in assay [3] is 23 nM.
On the same counts, the results for `COC1(c2cccc(Oc3ccc(OC(F)F)c(-c4nn(C)cc4NC(=O)c4cnn5cccnc45)c3)c2)CN(C)C1` [Example 71, N-[3-[2-(difluoromethoxy)-5-[3-(3-methoxy-1-methyl-azetidin-3-yl)phenoxy]phenyl]-1-methyl-pyrazol-4-yl]pyrazolo[1,5-a]pyrimidine-3-carboxamide] are 0.88 nM, 0.94 nM and 47 nM.
For the molecule `Cn1cc(NC(=O)c2cnn3cccnc23)c(-c2cc(Oc3cccc(CN[C@H]4C[C@H](O)C4)c3)ccc2OC(F)F)n1` [Example 72, N-[3-[2-(difluoromethoxy)-5-[3-[[(3-hydroxycyclobutyl)amino]methyl]phenoxy]phenyl]-1-methyl-pyrazol-4-yl]pyrazolo[1,5-a]pyrimidine-3-carboxamide], the figures for the Ki in assay [1] and in assay [2] were 0.74 nM and 0.91 nM, respectively. The IC50 in assay [3] was found to be 62 nM.
Consider `CN(C)CCn1cc(Oc2ccc(OC(F)F)c(-c3nn(C)cc3NC(=O)c3cnn4cccnc34)c2)cn1` [Example 73, N-[3-[2-(difluoromethoxy)-5-[1-[2-(dimethylamino)ethyl]pyrazol-4-yl]oxy-phenyl]-1-methyl-pyrazol-4-yl]pyrazolo[1,5-a]pyrimidine-3-carboxamide], for which the results for the Ki in assay [1] and in assay [2] were 1.7 nM and 1.6 nM, respectively. Moreover, the IC50 in assay [3] turned out to be 95 nM.
On the same counts, the results for `Cc1cc(Oc2ccc(OC(F)F)c(-c3nn(C)cc3NC(=O)c3cnn4cccnc34)c2)ccc1C(=O)N(C)C` [Example 74, N-[3-[2-(difluoromethoxy)-5-[4-(dimethylcarbamoyl)-3-methyl-phenoxy]phenyl]-1-methyl-pyrazol-4-yl]pyrazolo[1,5-a]pyrimidine-3-carboxamide] are 0.26 nM, 0.61 nM and 30 nM.
As for `Cn1cc(NC(=O)c2cnn3cccnc23)c(-c2cc(Oc3ccc4c(c3)CN(CCO)CC4)ccc2OC(F)F)n1` [Example 76, N-[3-[2-(difluoromethoxy)-5-[[2-(2-hydroxyethyl)-3,4-dihydro-1H-isoquinolin-7-yl]oxy]phenyl]-1-methyl-pyrazol-4-yl]pyrazolo[1,5-a]pyrimidine-3-carboxamide], the inhibition constant (Ki) was determined as 0.27 nM in assay [1] and 0.4 nM in assay [2]. The IC50 in assay [3] is 12 nM.
For `Cn1cc(NC(=O)c2cnn3cccnc23)c(-c2cc(Oc3cncc(CN)c3)ccc2OC(F)F)n1` [Example 77, N-[3-[5-[[5-(aminomethyl)-3-pyridyl]oxy]-2-(difluoromethoxy)phenyl]-1-methyl-pyrazol-4-yl]pyrazolo[1,5-a]pyrimidine-3-carboxamide], the Ki in assay [1] stood at 2.5 nM; in assay [2], 2.6 nM. Moreover, the IC50 in assay [3] was found to be 33 nM.
Take `CN(C)C(=O)c1cc(Oc2ccc(OC(F)F)c(-c3nn(C)cc3NC(=O)c3cnn4cccnc34)c2)ccc1Cl` [Example 78, N-[3-[5-[4-chloro-3-(dimethylcarbamoyl)phenoxy]-2-(difluoromethoxy)phenyl]-1-methyl-pyrazol-4-yl]pyrazolo[1,5-a]pyrimidine-3-carboxamide]: the results for the Ki in assay [1] and in assay [2] were 0.22 nM and 0.31 nM, respectively. For the same molecule, in assay [3], the IC50 came to 21 nM.
For `Cn1cc(NC(=O)c2cnn3cccnc23)c(-c2cc(Oc3cccc(C(=O)N4CCNCC4)c3)ccc2OC(F)F)n1` [Example 80, N-[3-[2-(difluoromethoxy)-5-[3-(piperazine-1-carbonyl)phenoxy]phenyl]-1-methyl-pyrazol-4-yl]pyrazolo[1,5-a]pyrimidine-3-carboxamide], in that order: 0.35 nM, 0.35 nM and 61 nM.
For `Cn1cc(NC(=O)c2cnn3cccnc23)c(-c2cc(Oc3cccc(C(=O)N4CCC(N5CCOCC5)CC4)c3)ccc2OC(F)F)n1` [Example 81, N-[3-[2-(difluoromethoxy)-5-[3-(4-morpholinopiperidine-1-carbonyl)phenoxy]phenyl]-1-methyl-pyrazol-4-yl]pyrazolo[1,5-a]pyrimidine-3-carboxamide], in that order: 0.48 nM, 0.47 nM and 26 nM.
For `CN1CCN(C(=O)c2cccc(Oc3ccc(OC(F)F)c(-c4nn(C)cc4NC(=O)c4cnn5cccnc45)c3)c2)CC1` [Example 84, N-[3-[2-(difluoromethoxy)-5-[3-(4-methylpiperazine-1-carbonyl)phenoxy]phenyl]-1-methyl-pyrazol-4-yl]pyrazolo[1,5-a]pyrimidine-3-carboxamide], in that order: 0.47 nM, 0.48 nM and 74 nM.
On to `Cc1cc(Oc2ccc(OC(F)F)c(-c3nn(C)cc3NC(=O)c3cnn4cccnc34)c2)ccc1C(=O)N1CCN(C)CC1` [Example 85, N-[3-[2-(difluoromethoxy)-5-[3-methyl-4-(4-methylpiperazine-1-carbonyl)phenoxy]phenyl]-1-methyl-pyrazol-4-yl]pyrazolo[1,5-a]pyrimidine-3-carboxamide], for which the Ki in assay [1] worked out at 0.4 nM; in assay [2] it was 1.3 nM. For the same molecule, in assay [3], the IC50 came out at 110 nM.
`CN1CCN(C(=O)c2ccc(Oc3ccc(OC(F)F)c(-c4nn(C)cc4NC(=O)c4cnn5cccnc45)c3)cc2)CC1` [Example 86, N-[3-[2-(difluoromethoxy)-5-[4-(4-methylpiperazine-1-carbonyl)phenoxy]phenyl]-1-methyl-pyrazol-4-yl]pyrazolo[1,5-a]pyrimidine-3-carboxamide]: the Ki in assay [1] is 0.56 nM; in assay [2], 1.1 nM. Moreover, in assay [3], the IC50 is 77 nM.
For the molecule `Cn1cc(NC(=O)c2cnn3cccnc23)c(-c2cc(Oc3cccc(C4CNC4)c3)ccc2OC(F)F)n1` [Example 87, N-[3-[5-[3-(azetidin-3-yl)phenoxy]-2-(difluoromethoxy)phenyl]-1-methyl-pyrazol-4-yl]pyrazolo[1,5-a]pyrimidine-3-carboxamide], the figures for the Ki in assay [1] and in assay [2] were 0.41 nM and 0.26 nM, respectively. In addition, in assay [3], the IC50 is 36 nM.
